Results taken from ChEMBL document CHEMBL3108748, “Telomere maintenance as a target for drug discovery” (J Med Chem, 2014).

Experiments:
[1] = molecular target: Telomerase reverse transcriptase (Rattus norvegicus, UniProt Q673L6); experiment: Inhibition of rat telomerase by TRAP assay
[2] = molecular target: T1, Telomerase reverse transcriptase (Homo sapiens, UniProt O14746); experiment: Inhibition of human telomerase activity by TRAP assay
[3] = molecular target: T1, Telomerase reverse transcriptase; experiment: Inhibition of human telomerase activity in human Jurkat cells by TRAP assay; type: cell-based
[4] = molecular target: T1, Telomerase reverse transcriptase; experiment: Inhibition of human telomerase activity after 8 mins by SYBR Green staining-based TRAP assay

T1 sequence (O14746 whole entry): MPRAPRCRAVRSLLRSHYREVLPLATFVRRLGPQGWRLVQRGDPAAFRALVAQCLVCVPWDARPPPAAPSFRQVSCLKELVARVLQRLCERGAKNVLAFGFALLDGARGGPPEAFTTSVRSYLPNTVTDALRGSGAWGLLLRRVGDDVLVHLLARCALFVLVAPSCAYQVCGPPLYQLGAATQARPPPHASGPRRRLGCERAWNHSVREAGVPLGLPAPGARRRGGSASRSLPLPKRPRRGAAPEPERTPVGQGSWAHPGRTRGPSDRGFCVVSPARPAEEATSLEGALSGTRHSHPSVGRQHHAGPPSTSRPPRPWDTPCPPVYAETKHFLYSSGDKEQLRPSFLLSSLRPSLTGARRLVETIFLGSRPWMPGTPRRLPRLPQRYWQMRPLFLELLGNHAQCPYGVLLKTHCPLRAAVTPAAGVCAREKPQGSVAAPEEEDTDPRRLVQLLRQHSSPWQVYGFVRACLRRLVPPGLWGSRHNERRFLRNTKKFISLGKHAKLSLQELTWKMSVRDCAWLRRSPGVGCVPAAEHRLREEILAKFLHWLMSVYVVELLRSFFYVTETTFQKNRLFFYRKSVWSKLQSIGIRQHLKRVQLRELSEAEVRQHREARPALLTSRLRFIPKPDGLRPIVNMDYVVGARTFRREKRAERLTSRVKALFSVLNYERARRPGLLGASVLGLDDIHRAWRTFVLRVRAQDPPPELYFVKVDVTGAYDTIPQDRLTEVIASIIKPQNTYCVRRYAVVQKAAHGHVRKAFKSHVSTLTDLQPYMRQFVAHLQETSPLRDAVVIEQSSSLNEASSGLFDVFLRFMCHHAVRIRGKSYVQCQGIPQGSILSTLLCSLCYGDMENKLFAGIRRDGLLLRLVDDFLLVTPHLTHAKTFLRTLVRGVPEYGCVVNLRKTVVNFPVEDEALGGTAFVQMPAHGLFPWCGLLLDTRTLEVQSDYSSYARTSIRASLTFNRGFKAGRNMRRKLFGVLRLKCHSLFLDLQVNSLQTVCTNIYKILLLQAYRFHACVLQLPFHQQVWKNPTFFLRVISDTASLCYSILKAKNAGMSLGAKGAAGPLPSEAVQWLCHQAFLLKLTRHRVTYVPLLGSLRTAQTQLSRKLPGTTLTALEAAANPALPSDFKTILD
Telomerase reverse transcriptase (Rattus norvegicus, UniProt Q673L6), sequence (Q673L6 whole entry): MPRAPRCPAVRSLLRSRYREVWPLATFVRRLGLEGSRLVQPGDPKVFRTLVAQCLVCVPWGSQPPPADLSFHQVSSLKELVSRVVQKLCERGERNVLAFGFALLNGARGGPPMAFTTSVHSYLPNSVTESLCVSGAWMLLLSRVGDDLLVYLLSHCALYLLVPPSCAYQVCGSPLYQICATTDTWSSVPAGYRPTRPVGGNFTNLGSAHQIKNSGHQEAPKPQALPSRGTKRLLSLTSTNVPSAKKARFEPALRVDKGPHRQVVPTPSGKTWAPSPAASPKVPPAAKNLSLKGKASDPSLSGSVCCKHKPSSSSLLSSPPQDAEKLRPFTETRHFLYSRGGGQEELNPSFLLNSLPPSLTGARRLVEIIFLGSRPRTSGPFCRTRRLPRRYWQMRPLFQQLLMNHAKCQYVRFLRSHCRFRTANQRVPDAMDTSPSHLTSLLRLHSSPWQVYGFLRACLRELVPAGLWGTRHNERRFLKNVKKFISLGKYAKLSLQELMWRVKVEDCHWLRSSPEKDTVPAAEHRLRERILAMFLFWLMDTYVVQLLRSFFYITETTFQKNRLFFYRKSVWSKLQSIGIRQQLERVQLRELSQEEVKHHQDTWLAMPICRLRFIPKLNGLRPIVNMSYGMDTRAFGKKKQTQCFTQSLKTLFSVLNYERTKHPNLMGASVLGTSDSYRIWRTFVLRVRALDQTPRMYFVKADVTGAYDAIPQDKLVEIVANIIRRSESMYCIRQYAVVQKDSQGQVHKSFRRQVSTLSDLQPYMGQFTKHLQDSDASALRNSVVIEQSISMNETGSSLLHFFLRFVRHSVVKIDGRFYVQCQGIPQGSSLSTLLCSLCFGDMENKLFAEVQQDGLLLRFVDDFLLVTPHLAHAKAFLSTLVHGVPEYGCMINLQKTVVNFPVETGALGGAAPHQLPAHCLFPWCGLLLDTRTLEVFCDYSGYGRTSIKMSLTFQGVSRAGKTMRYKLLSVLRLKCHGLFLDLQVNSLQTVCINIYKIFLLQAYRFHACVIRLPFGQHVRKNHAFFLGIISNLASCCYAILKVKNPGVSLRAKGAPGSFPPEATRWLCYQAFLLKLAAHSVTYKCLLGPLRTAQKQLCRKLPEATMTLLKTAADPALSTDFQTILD

Q: Which IC50 [1] does the source give for `O=c1ccsn1-c1cccc(C(F)(F)F)c1` here?
A: 1000 nM

Q: Which IC50 [2] does the source give for `N=C(N)Nc1nc(-c2cc(Cl)sc2Cl)cs1` here?
A: 1000 nM

Q: Which IC50 [3] does the source give for `COc1ccc2c(c1)CC[C@@H]1[C@@H]2CC[C@]2(C)[C@@H](NCCCCCCN3C(=O)C=CC3=O)CC[C@@H]12` here?
A: 200 nM

Q: `O=[N+]([O-])/C=C/c1cccc(Oc2cc(Cl)cc(Cl)c2)c1` was tested. Which IC50 [4] did it give?
A: 400 nM
